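48-hour exposure; five concentrations; linearly interpolated endpoints. GI50 is the concentration that inhibits growth by half.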 The source made the active and inactive calls. Cut-off read from the data, not from the text of the source: active = GI50 up to about 1.1 µM and inactive = higher.
Tests used:
Assay in all cases: NCI-60 cell line screen, 48 h
786-0 = system: 786-0
A498 = system: A498
A549 = system: A549
ACHN = system: ACHN
BT-549 = system: BT-549
CAKI-1 = system: CAKI-1
CCRF-CEM = system: CCRF-CEM
COLO 205 = system: COLO 205
DU-145 = system: DU-145
EKVX = system: EKVX
HCC 2998 = system: HCC 2998
HCT-116 = system: HCT-116
HCT-15 = system: HCT-15
HL-60 = system: HL-60
HOP-62 = system: HOP-62
HOP-92 = system: HOP-92
HT-29 = system: HT-29
Hs-578T = system: Hs-578T
IGROV-1 = system: IGROV-1
K562 = system: K562
KM12 = system: KM12
LOX IMVI = system: LOX IMVI
M14 = system: M14
MCF7 = system: MCF7
MDA-MB-231 = system: MDA-MB-231
MDA-MB-435 = system: MDA-MB-435
MDA-N = system: MDA-N
MOLT-4 = system: MOLT-4
Malme-3M = system: Malme-3M
NCI-H23 = system: NCI-H23
NCI-H460 = system: NCI-H460
NCI-H522 = system: NCI-H522
NCI/ADR-RES = system: NCI/ADR-RES
OVCAR-3 = system: OVCAR-3
OVCAR-4 = system: OVCAR-4
OVCAR-5 = system: OVCAR-5
OVCAR-8 = system: OVCAR-8
PC-3 = system: PC-3
RPMI-8226 = system: RPMI-8226
RXF 393 = system: RXF 393
SF-268 = system: SF-268
SF-295 = system: SF-295
SF-539 = system: SF-539
SK-MEL-28 = system: SK-MEL-28
SK-MEL-2 = system: SK-MEL-2
SK-OV-3 = system: SK-OV-3
SN12C = system: SN12C
SNB-19 = system: SNB-19
SNB-75 = system: SNB-75
SR = system: SR
SW-620 = system: SW-620
T47D = system: T47D
TK-10 = system: TK-10
U-251 = system: U-251
UACC-257 = system: UACC-257
UACC-62 = system: UACC-62
UO-31 = system: UO-31

Structure (SMILES): Clc1ccc(COC(Cn2ccnc2)c2ccc(Cl)cc2Cl)cc1 (configuration not stated) [ECONAZOLE NITRATE]
- GI50 (786-0): 12.6 µM (inactive)
- GI50 (A498): 11.6 µM (inactive)
- GI50 (A549): 9.79 µM (inactive)
- GI50 (ACHN): 12.8 µM (inactive)
- GI50 (BT-549): 15.2 µM (inactive)
- GI50 (CAKI-1): 7.31 µM (inactive)
- GI50 (CCRF-CEM): 5.87 µM (inactive)
- GI50 (COLO 205): 8.28 µM (inactive)
- GI50 (DU-145): 14.4 µM (inactive)
- GI50 (EKVX): 12.1 µM (inactive)
- GI50 (HCC 2998): 15.6 µM (inactive)
- GI50 (HCT-116): 6.67 µM (inactive)
- GI50 (HCT-15): 12.8 µM
- GI50 (HL-60): 4.19 µM (inactive)
- GI50 (HOP-62): 15.5 µM (inactive)
- GI50 (HOP-92): 11.8 µM (inactive)
- GI50 (HT-29): 8.49 µM (inactive)
- GI50 (Hs-578T): 17.1 µM (inactive)
- GI50 (IGROV-1): 12.2 µM (inactive)
- GI50 (K562): 4.62 µM (inactive)
- GI50 (KM12): 12.1 µM (inactive)
- GI50 (LOX IMVI): 9.57 µM (inactive)
- GI50 (M14): 13 µM (inactive)
- GI50 (MCF7): 8.26 µM (inactive)
- GI50 (MDA-MB-231): 12.4 µM (inactive)
- GI50 (MDA-MB-435): 9.68 µM (inactive)
- GI50 (MDA-N): 11.9 µM (inactive)
- GI50 (MOLT-4): 2.75 µM (inactive)
- GI50 (Malme-3M): 16.4 µM (inactive)
- GI50 (NCI-H23): 13.2 µM (inactive)
- GI50 (NCI-H460): 10.7 µM (inactive)
- GI50 (NCI-H522): 8.24 µM (inactive)
- GI50 (NCI/ADR-RES): 5.42 µM (inactive)
- GI50 (OVCAR-3): 11.5 µM (inactive)
- GI50 (OVCAR-4): 8.3 µM (inactive)
- GI50 (OVCAR-5): 14.5 µM (inactive)
- GI50 (OVCAR-8): 14.8 µM (inactive)
- GI50 (PC-3): 9.16 µM (inactive)
- GI50 (RPMI-8226): 4.22 µM (inactive)
- GI50 (RXF 393): 14.1 µM (inactive)
- GI50 (SF-268): 14.7 µM (inactive)
- GI50 (SF-295): 9.57 µM (inactive)
- GI50 (SF-539): 13.6 µM (inactive)
- GI50 (SK-MEL-28): 14.8 µM (inactive)
- GI50 (SK-MEL-2): 15 µM (inactive)
- GI50 (SK-OV-3): 19.7 µM (inactive)
- GI50 (SN12C): 12.1 µM (inactive)
- GI50 (SNB-19): 14.9 µM (inactive)
- GI50 (SNB-75): 15.6 µM (inactive)
- GI50 (SR): 3.49 µM (inactive)
- GI50 (SW-620): 11.3 µM (inactive)
- GI50 (T47D): 5.42 µM (inactive)
- GI50 (TK-10): 11.4 µM (inactive)
- GI50 (U-251): 12.6 µM (inactive)
- GI50 (UACC-257): 10.4 µM (inactive)
- GI50 (UACC-62): 9.86 µM (inactive)
- GI50 (UO-31): 3.41 µM (inactive)
